pIC50: −log10 of the molar value. Calls of active or inactive are those of the source. No cut-off for these calls is given here.
Columns and labels:
[1] = Toxicity in BALB/c mouse assessed as increase in serum AST level at 20 mg/kg, po administered for 5 days and measured on day 1 and day 14 by ELISA method; type: organism-based; details: in vivo, 120 h, time 5 day
[2] = Toxicity in BALB/c mouse assessed as increase in creatinine level at 20 mg/kg, po administered for 5 days and measured after 1 day by colorimetric assay; type: organism-based; details: in vivo, 120 h, time 5 day
Toxoplasma gondii [3] = assay: Antiparasitic activity against Toxoplasma gondii RH infected in BALB/c mouse assessed as reduction of bradyzoite gene copies in brain at 20 mg/kg, po administered every 24 hrs for 5 days starting from 24 hrs post infection by real-time qPCR analysis; type: functional, organism-based; details: time 5.0 day
[4] = Toxicity in BALB/c mouse assessed as hydropic degeneration at 20 mg/kg, po administered for 5 days and measured after 1 day by hematoxylin-eosin staining based microscopic analysis; type: organism-based; details: in vivo, 120 h, time 5 day
Toxoplasma gondii [5] = assay: Antiparasitic activity against Toxoplasma gondii RH infected in BALB/c mouse assessed as prolongation of animal survival at 20 mg/kg, po administered every 24 hrs for 5 days starting from 24 hrs post infection by Kaplan-Meier method; type: functional, organism-based; details: time 5.0 day
Toxoplasma gondii [6] = assay: Antiparasitic activity against Toxoplasma gondii RH infected in BALB/c mouse assessed as decrease in IFNgamma level in serum at 20 mg/kg, po administered every 24 hrs for 5 days starting from 24 hrs post infection by ELISA method; type: functional, organism-based; details: time 5.0 day
[7] = Toxicity in BALB/c mouse assessed as increase in serum ALT level at 20 mg/kg, po administered for 5 days and measured on day 1 and day 14 by ELISA method; type: organism-based; details: in vivo, 120 h, time 5 day
Toxoplasma gondii [8] = assay: Antiparasitic activity against Toxoplasma gondii DX infected in C3H/HeOuJ mouse assessed as prolongation of survival at 20 mg/kg, po administered every 24 hrs for 5 days starting from 24 hrs post infection by Kaplan-Meier method; type: functional, organism-based; details: time 5.0 day
[9] = Toxicity in BALB/c mouse assessed as changes in liver weight at 20 mg/kg, po administered for 5 days and measured after 14 days; type: organism-based; details: in vivo, 120 h, time 5 day
[10] = Toxicity in BALB/c mouse assessed as increase in liver weight at 20 mg/kg, po administered for 5 days and measured after 1 day; type: organism-based; details: in vivo, 120 h, time 5 day
Toxoplasma gondii [11] = assay: Antiparasitic activity against Toxoplasma gondii RH infected in BALB/c mouse assessed as reduction in number of bradyzoite gene copies in muscles at 20 mg/kg, po administered every 24 hrs for 5 days starting from 24 hrs post infection by real-time qPCR analysis; type: functional; details: time 5 day
[12] = Elimination half-life in BALB/c mouse serum at 50 mg/kg, po measured upto 60 mins by LC-MS/MS analysis; type: ADME, organism-based; details: in vivo, 1 h
Toxoplasma gondii [13] = assay: Antiparasitic activity against Toxoplasma gondii RH infected in BALB/c mouse assessed as decrease in number of bradyzoite gene copies in brain at 50 mg/kg, po administered every 24 hrs for 5 days starting from 24 hrs post infection by real-time qPCR analysis; type: functional, organism-based; details: time 5.0 day
[14] = Toxicity in BALB/c mouse assessed as microvesicular steatosis of hepatocytes at 50 mg/kg, po administered for 5 days and measured after 1 day by hematoxylin-eosin staining based microscopic analysis; type: organism-based; details: in vivo, 120 h, time 5 day
[15] = Toxicity in BALB/c mouse assessed as increase in serum ALT level at 50 mg/kg, po administered for 5 days and measured after 14 days by ELISA method; type: organism-based; details: in vivo, 120 h, time 5 day
Toxoplasma gondii [16] = assay: Antiparasitic activity against Toxoplasma gondii RH infected in BALB/c mouse assessed as reduction of bradyzoite gene copies in heart at 25 mg/kg, po administered every 24 hrs for 5 days starting from 24 hrs post infection by real-time qPCR analysis; type: functional, organism-based; details: time 5.0 day
[17] = AUC in BALB/c mouse brain at 25 mg/kg, po measured upto 24 hrs by LC-MS/MS analysis; type: ADME, organism-based; design: time < 24 hrs, dose 25 mg/kg, route po
[18] = Toxicity in BALB/c mouse assessed as changes in serum AST level at 50 mg/kg, po administered for 5 days and measured on day 1 and day 14 by ELISA method; type: organism-based; details: in vivo, 120 h, time 5 day
[19] = Elimination half-life in BALB/c mouse brain at 50 mg/kg, po measured upto 24 hrs by LC-MS/MS analysis; type: ADME, organism-based; details: read-out: beta t1/2 (converted)
[20] = Oral bioavailability in BALB/c mouse serum at 50 mg/kg measured upto 60 mins by LC-MS/MS analysis; type: ADME, organism-based
Toxoplasma gondii [21] = assay: Antiparasitic activity against Toxoplasma gondii RH infected in BALB/c mouse assessed as survival rate at 50 mg/kg, po administered every 12 hrs for 5 days starting from 24 hrs post infection by Kaplan-Meier method; type: functional; details: 120 h, time 5 day
[22] = Tmax in BALB/c mouse serum at 25 mg/kg, po measured upto 60 mins by LC-MS/MS analysis; type: ADME, organism-based; details: in vivo, 1 h
[23] = Elimination half-life in BALB/c mouse serum at 25 mg/kg, po measured upto 60 mins by LC-MS/MS analysis; type: ADME, organism-based; details: in vivo, 1 h
[24] = Tmax in BALB/c mouse brain at 25 mg/kg, po measured upto 24 hrs by LC-MS/MS analysis; type: ADME, organism-based
L929 = assay: Cytotoxicity against mouse L929 cells assessed as reduction in cell viability incubated for 24 hrs by MTT assay; type: toxicity, cell-based; details: l929, 24 h
[25] = Tmax in BALB/c mouse serum at 50 mg/kg, po measured upto 60 mins by LC-MS/MS analysis; type: ADME, organism-based; details: in vivo, 1 h
Toxoplasma gondii [26] = assay: Antiparasitic activity against Toxoplasma gondii RH infected in BALB/c mouse assessed as reduction in number of bradyzoite gene copies in muscles at 25 mg/kg, po administered every 24 hrs for 5 days starting from 24 hrs post infection by real-time qPCR analysis; type: functional; details: time 5 day
[27] = Toxicity in BALB/c mouse assessed as changes in size of hepatocyte nuclei at 50 mg/kg, po administered for 5 days and measured after 14 days by hematoxylin-eosin staining based microscopic analysis; type: organism-based; details: hepatocytes, 120 h, time 5 day
[28] = AUC in BALB/c mouse serum at 50 mg/kg, po measured upto 60 mins by LC-MS/MS analysis; type: ADME, organism-based; design: time < 60 min, dose 50 mg/kg, route po; details: in vivo, 1 h
[29] = Toxicity in BALB/c mouse assessed as changes in creatinine level at 50 mg/kg, po administered for 5 days and measured on day 1 and day 14 by colorimetric assay; type: organism-based; details: in vivo, 120 h, time 5 day
[30] = Tmax in BALB/c mouse brain at 50 mg/kg, po measured upto 24 hrs by LC-MS/MS analysis; type: ADME, organism-based
[31] = Cmax in BALB/c mouse brain at 25 mg/kg, po measured upto 24 hrs by LC-MS/MS analysis; type: ADME, organism-based; design: time < 24 hrs, dose 25 mg/kg, route po; details: in vivo
Toxoplasma gondii [32] = assay: Antiparasitic activity against Toxoplasma gondii RH infected in human Hs27 cells assessed as parasitic growth inhibition incubated for 24 hrs followed by [5,6-3H] uracil addition and measured after 72 hrs by liquid scintillation counter analysis; type: functional, organism-based
[33] = Toxicity in BALB/c mouse assessed as changes in liver weight at 50 mg/kg, po administered for 5 days and measured after 14 days; type: organism-based; details: in vivo, 120 h, time 5 day
[34] = AUC in BALB/c mouse serum at 25 mg/kg, po measured upto 60 mins by LC-MS/MS analysis; type: ADME, organism-based; design: dose 25 mg/kg, time < 60 min, route po; details: in vivo, 1 h
[35] = Elimination half-life in BALB/c mouse brain at 25 mg/kg, po measured upto 24 hrs by LC-MS/MS analysis; type: ADME, organism-based; details: read-out: beta t1/2 (converted)
[36] = Cmax in BALB/c mouse serum at 50 mg/kg, po measured upto 60 mins by LC-MS/MS analysis; type: ADME, organism-based; design: time < 60 min, dose 50 mg/kg, route po; details: in vivo, 1 h
[37] = Toxicity in BALB/c mouse assessed as disseminated necrosis of hepatocytes at 50 mg/kg, po administered for 5 days and measured after 14 days by hematoxylin-eosin staining based microscopic analysis; type: organism-based; details: in vivo, 120 h, time 5 day
HS27 = assay: Cytotoxicity against human HS27 cells assessed as reduction in cell viability; type: toxicity, cell-based
[38] = Oral bioavailability in BALB/c mouse serum at 25 mg/kg measured upto 60 mins by LC-MS/MS analysis; type: ADME, organism-based
[39] = AUC in BALB/c mouse brain at 50 mg/kg, po measured upto 24 hrs by LC-MS/MS analysis; type: ADME, organism-based; design: dose 50 mg/kg, time < 24 hrs, route po
[40] = Toxicity in BALB/c mouse assessed as disseminated necrosis of hepatocytes at 50 mg/kg, po administered for 5 days and measured after 1 day by hematoxylin-eosin staining based microscopic analysis; type: organism-based; details: in vivo, 120 h, time 5 day
Toxoplasma gondii [41] = assay: Antiparasitic activity against Toxoplasma gondii RH infected in BALB/c mouse assessed as decrease in IFNgamma level in serum at 25 to 50 mg/kg, po administered for 5 days starting from 24 hrs post infection by ELISA method; type: functional, organism-based; details: dose 25-50 mg/kg, time 5.0 day
Toxoplasma gondii [42] = assay: Antiparasitic activity against Toxoplasma gondii DX infected in C3H/HeOuJ mouse assessed as prolongation of survival at 25 to 50 mg/kg, po administered for 5 days starting from 24 hrs post infection by Kaplan-Meier method; type: functional, organism-based; details: dose 25-50 mg/kg, time 5.0 day
Toxoplasma gondii [43] = assay: Antiparasitic activity against Toxoplasma gondii RH infected in BALB/c mouse assessed as prolongation of animal survival at 25 to 50 mg/kg, po administered for 5 days starting from 24 hrs post infection by Kaplan-Meier method; type: functional, organism-based; details: dose 25-50 mg/kg, time 5.0 day
[44] = Cmax in BALB/c mouse brain at 50 mg/kg, po measured upto 24 hrs by LC-MS/MS analysis; type: ADME, organism-based; design: time < 24 hrs, dose 50 mg/kg, route po; details: in vivo
[45] = Toxicity in BALB/c mouse assessed as changes in body weight at 1000 mg/kg, po administered once and observed for 10 days; type: organism-based; details: in vivo, 240 h, time 10 day
Toxoplasma gondii [46] = assay: Antiparasitic activity against Toxoplasma gondii RH infected in BALB/c mouse assessed as reduction of daughter tachyzoites in blood at 25 to 50 mg/kg, po administered for 5 days starting from 24 hrs post infection by real-time qPCR analysis; type: functional, organism-based; details: dose 25-50 mg/kg, time 5.0 day
[47] = Toxicity in BALB/c mouse assessed as changes in body weight at 25 to 50 mg/kg, po administered for 5 days and measured on day 1 and day 14; type: organism-based; details: in vivo, 120 h, dose 25-50 mg/kg, time 5 day
[48] = Cmax in BALB/c mouse serum at 25 mg/kg, po measured upto 60 mins by LC-MS/MS analysis; type: ADME, organism-based; design: dose 25 mg/kg, time < 60 min, route po; details: in vivo, 1 h
[49] = Toxicity in BALB/c mouse assessed as changes in liver weight at 50 mg/kg, po administered for 5 days and measured after 1 day; type: organism-based; details: in vivo, 120 h, time 5 day
[50] = Oral bioavailability in BALB/c mouse brain at 25 mg/kg measured upto 24 hrs by LC-MS/MS analysis; type: ADME, organism-based
[51] = Oral bioavailability in BALB/c mouse brain at 50 mg/kg measured upto 24 hrs by LC-MS/MS analysis; type: ADME, organism-based

SMILES: COc1cc(Cc2cnc(N)nc2N)cc(OC)c1OC [TRIMETHOPRIM]
- Activity [1]: Non-Toxic
- Activity [2]: Toxic
- Activity (Toxoplasma gondii [3]): Active
- Activity [4]: Toxic
- Activity (Toxoplasma gondii [5]): Active
- Activity (Toxoplasma gondii [6]): inactive
- Activity [7]: Non-Toxic
- Activity (Toxoplasma gondii [8]): Active
- Activity [9]: Non-Toxic
- Activity [10]: Toxic
- Activity (Toxoplasma gondii [11]): 36

SMILES: Cc1nc[nH]c1C(=O)NNC(=S)Nc1ccc([N+](=O)[O-])cc1
- beta t1/2 [12]: 24 min
- Activity (Toxoplasma gondii [13]): Active
- Activity [14]: Toxic
- Activity [15]: Non-Toxic
- Activity (Toxoplasma gondii [16]): Active
- AUC at 24 h [17]: 24.9 ng·h/mL
- Activity [18]: Non-Toxic
- half-life [19]: 54.6 min
- bioavailability [20]: 4.06%
- survival at 50 mg/kg (Toxoplasma gondii [21]): 20%
- Tmax [22]: 30 min
- beta t1/2 [23]: 52.8 min
- Tmax [24]: 120 min
- CC30 (L929): 682.98 µM
- Tmax [25]: 15 min
- Activity (Toxoplasma gondii [26]): 20
- Activity [27]: Toxic
- AUC [28]: 40640 ng·h/mL
- Activity [29]: Non-Toxic
- Tmax [30]: 30 min
- Cmax [31]: 7.74 ng/mg
- pIC50 (Toxoplasma gondii [32]): 4.17
- Activity [33]: Non-Toxic
- AUC [34]: 53700 ng·h/mL
- half-life [35]: 175 min
- Cmax [36]: 11080 ng/mL
- Activity [37]: Toxic
- CC30 (HS27): 697.67 µM
- bioavailability [38]: 10.7%
- AUC at 24 h [39]: 47.5 ng·h/mL
- Activity [40]: Toxic
- Activity (Toxoplasma gondii [41]): Active
- Activity (Toxoplasma gondii [42]): Active
- Activity (Toxoplasma gondii [43]): Active
- Cmax [44]: 32.27 ng/mg
- Activity [45]: Non-Toxic
- Activity (Toxoplasma gondii [46]): Active
- Activity [47]: Non-Toxic
- Cmax [48]: 6400 ng/mL
- Activity [49]: Non-Toxic
- bioavailability [50]: 0.46%
- bioavailability [51]: 1.17%

Source: ChEMBL document CHEMBL5247617, “4-Arylthiosemicarbazide derivatives - Pharmacokinetics, toxicity and anti-Toxoplasma gondii activity in vivo” (Eur J Med Chem, 2022)
